# Source: publication PMC8779485, “Implementation and Comparison of Two Pharmacometric Tools for Model-Based Therapeutic Drug Monitoring and Precision Dosing of Daptomycin” (Pharmaceutics, 2022)
# Legend:
# [1] = Daptomycin TDM in patients with bone and joint infection, Bayesian estimation with nonparametric model in BestDose (validation dataset)
# Text: (§1) We used two data sets: a learning set used to derive the nonparametric population model of daptomycin and a validation dataset. The learning dataset was described in a previous publication from our group, which focused on the influence of P-gp gene polymorphism on daptomycin PK (n = 81 patients). […] All patients were enrolled in a cohort study after information. This cohort study was subject to a declaration to the local Commission for Data Protection and Liberties (number 17-057) and is registered on ClinicalTrial.gov (number NCT03134521). In addition, patients’ written informed consent was obtained for P-gp genotyping, in accordance with French regulation.
# (§2) Blood samples for daptomycin TDM were obtained during hospitalization or follow-up visit at the BJI center. In most patients, TDM was performed on several occasions to control drug exposure throughout therapy. At each occasion, a typical PK profile was obtained, including three plasma samples collected approximately pre-dose (trough or Cmin), 30 min and 5 to 6 h after daptomycin administration. On some occasions, only one or two samples could be obtained. Sampling times were recorded precisely in each patient. Daptomycin plasma concentrations were measured using an HPLC assay with a photodiode array detector. The method was adapted from a previous publication.
# (§3) In our previous work, the final population PK model of daptomycin was built by using a parametric approach (SAEM algorithm in the Monolix software). […] We reanalyzed the original dataset in order to implement a nonparametric model into the BestDose software. The NPAG algorithm embedded into the Pmetrics package for R was used to develop the nonparametric model. […] The error model was based on the assay error pattern. The predictive performance of the final model was assessed by computing the bias and precision of model-based individual predictions (see below). The model was then imported into the Windows version of the BestDose software.
# (§4) We used an external dataset from 94 patients who received daptomycin for BJI and had TDM to validate the predictive performance of our nonparametric model in BestDose and that of the parametric model in Tucuxi. In this evaluation, we only used the daptomycin concentrations collected during the first TDM occasion in each patient.
# (§5) The dosage history, covariate values, times and values of measured concentrations in each patient were entered into each program. The population model was fit to individual data by using Bayesian regression in both tools. After estimation of Bayesian posterior individual PK parameters, the estimated PK profile of each patient was obtained, including predictions of measured daptomycin concentrations.
# (§6) Because daptomycin AUC is an important predictor of its antibacterial effect, we also compared the estimations of individual daily AUC (AUC24h) in the 94 patients provided by BestDose and Tucuxi.
# [2] = Daptomycin TDM in patients with bone and joint infection, Bayesian estimation with parametric model (Dvorchik et al.) in Tucuxi (validation dataset)
# Text: as §1, §2
# As we aimed at comparing our nonparametric model to a reference model for TDM and dose adjustment, we implemented the seminal daptomycin parametric model developed by daptomycin’s manufacturer into the Tucuxi software. Tucuxi is a new software dedicated to the analysis of TDM results and individual dose adjustment (http://www.tucuxi.ch/, accessed 27 December 2021).
# The two-compartment reference model from Dvorchik et al. was imported into Tucuxi, including its error model and all its covariates except body temperature, which influenced daptomycin clearance in the original model. This covariate was discarded because it is not measured consistently in all patients in routine, especially in outpatients, and its value may be altered by co-treatment such as acetaminophen. The other covariates were retained, with creatinine clearance and sex influencing daptomycin clearance and body weight influencing both intercompartment clearance and peripheral volume of distribution.
# as §4, §5, §6
# [3] = Nonparametric population PK model of daptomycin (NPAG, Pmetrics) in the learning dataset
# Text: as §1, §2, §3
# [4] = cited from earlier work
# Protocol: Daptomycin is a cyclic lipopeptide antibiotic with bactericidal activity on Gram-positive bacteria discovered in 1980 [1, 2]. The Food and Drug Administration (FDA) approved its use in 2003 for treating complicated skin and skin structure infections and Staphylococcus aureus bloodstream infections, including those with right-sided infective endocarditis. In those indications, the recommended dosing regimen ranges from 4 to 6 mg/kg. Daptomycin is also used off-label in various indications, including bloodstream infections caused by Gram-positive agents others than S. aureus and bone an ...
# [5] = in vivo; cited from earlier work
# Text: However, increasing daptomycin doses raises concerns about safety. It was shown that daptomycin muscular toxicity, as measured by elevation in serum creatinine phosphokinase (CPK), correlated with plasma trough concentration (Cmin).
# [6] = patients who received 6 mg/kg; cited from earlier work
# [7] = learning dataset n = 81, Pmetrics estimation, mean
# [8] = learning dataset n = 81, Pmetrics estimation, median
smiles,measurement,setting,value
"CCCCCCCCCC(=O)N[C@@H](Cc1c[nH]c2ccccc12)C(=O)N[C@H](CC(N)=O)C(=O)N[C@@H](CC(=O)O)C(=O)N[C@@H]1C(=O)NCC(=O)N[C@@H](CCCN)C(=O)N[C@@H](CC(=O)O)C(=O)N[C@H](C)C(=O)N[C@@H](CC(=O)O)C(=O)NCC(=O)N[C@H](CO)C(=O)N[C@@H]([C@H](C)CC(=O)O)C(=O)N[C@@H](CC(=O)c2ccccc2N)C(=O)O[C@@H]1C [daptomycin, Daptomycin]",T1/2 (terminal half-life),"[1]; BestDose individual estimate, validation dataset n = 94, mean ± SD, SD",16.8 ± 10.6 h
same,Proportion of patients with AUC24h < 666 mg.h/L (underexposed),"[1]; human, in vivo",21.3%
same,AUC24h,"[1]; human, in vivo, 1.3 mg/kg, SD",975 ± 395 µg·h/mL
same,CLdap (daptomycin total body clearance),"[1]; human, in vivo, SD",0.74 ± 0.42 L/h
same,Cmin,"[1]; human, in vivo, SD",21300 ± 12900 ng/mL
same,Dmin (minimum effective dose to attain AUC24h = 666 mg.h/L at steady-state),"[1]; human, in vivo, SD",6.4 ± 2.7 mg/kg
same,Predicted concentrations,"[1]; human, in vivo, SD",46.6 ± 46.7 mg/L
same,V1,"[1]; human, in vivo, SD",7.9 ± 3.5 L
same,T1/2 (terminal half-life),"[2]; Tucuxi individual estimate, validation dataset n = 94, mean ± SD",13.1 ± 4.7 h
same,AUC24h,"[2]; human, in vivo, SD",893 ± 345 µg·h/mL
same,CLdap (daptomycin total body clearance),"[2]; human, in vivo, SD",0.73 ± 0.29 L/h
same,Dmin (minimum effective dose to attain AUC24h = 666 mg.h/L at steady-state),"[2]; human, in vivo, SD",6.9 ± 2.8 mg/kg
same,Predicted concentrations,"[2]; human, in vivo, SD",44.3 ± 44.5 mg/L
same,V1,"[2]; human, in vivo, SD",5.9 ± 2.4 L
same,"Kpc (transfer rate constant peripheral to central), mean",[3]; in vivo,0.667 h⁻¹
same,"Kpc (transfer rate constant peripheral to central), median",[3]; in vivo,0.449 h⁻¹
same,"Kcp (transfer rate constant central to peripheral), mean",[3]; [7],0.693 h⁻¹
same,"Ki (non-renal component of elimination rate constant), mean",[3]; [7],0.060 h⁻¹
same,"Ks (renal component of elimination rate constant), mean",[3]; [7],0.050 h^−1 per 100 mL/min of CLCR
same,"Kcp (transfer rate constant central to peripheral), median",[3]; [8],0.287 h⁻¹
same,"Ki (non-renal component of elimination rate constant), median",[3]; [8],0.052 h⁻¹
same,"Ks (renal component of elimination rate constant), median",[3]; [8],0.045 h^−1 per 100 mL/min of CLCR
same,"V1 (central volume of distribution), mean","[3]; population parameter, learning dataset n = 81, Pmetrics estimation, mean",6.90 L per 70 kg
same,"V1 (central volume of distribution), median","[3]; population parameter, learning dataset n = 81, Pmetrics estimation, median",7.18 L per 70 kg
same,Average ratio of area under the unbound concentration time-curve in bone over plasma,[4]; 10 patients,1.08
same,"Average tissue to plasma concentration ratio, bone",[4]; bone,14.1%
same,"Average tissue to plasma concentration ratio, synovial fluid",[4]; synovial fluid,54%
same,Upper bound for Cmin target (CPK elevation),[5],24300 ng/mL
same,Rate of efficacy target attainment,[6],40%
